The source of these data is EP0943606A1, “BENZENESULFONAMIDE DERIVATIVES AND DRUGS CONTAINING THE SAME” (HOKURIKU SEIYAKU CO., LTD., priority 1996, dated 1998).

Data set [1] concerns the target T1, thromboxane A2 / prostaglandin H2 receptor (Cavia porcellus, UniProt A0A286Y4I8).
T1 construct: tracheas were isolated from male Hartley guinea-pigs, and spiral specimens of approximately 2 cm length were prepared; from tissue; host or cells: isolated guinea-pig trachea (spiral strips)
T1 sequence (A0A286Y4I8 1-347): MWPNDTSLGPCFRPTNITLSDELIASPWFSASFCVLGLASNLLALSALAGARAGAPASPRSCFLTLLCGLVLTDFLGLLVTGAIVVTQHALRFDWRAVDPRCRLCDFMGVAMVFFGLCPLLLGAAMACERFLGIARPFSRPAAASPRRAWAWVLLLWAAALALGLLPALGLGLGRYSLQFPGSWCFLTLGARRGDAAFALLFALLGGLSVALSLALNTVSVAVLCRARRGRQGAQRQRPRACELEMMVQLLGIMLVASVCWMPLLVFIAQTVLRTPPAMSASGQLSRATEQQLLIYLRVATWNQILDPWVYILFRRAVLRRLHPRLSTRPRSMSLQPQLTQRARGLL
Nature of the data set: Thromboxane A2 antagonistic effect (isolated trachea, U-46619 concentration-response curves, Schild). Further details: species or system male Hartley guinea-pigs. Particulars: isolated guinea-pig trachea, contraction by U-46619, test compound treatment 5 minutes, indomethacin 3 × 10^-6M, method of Schild. The protocol: According to an ordinary method, tracheas were isolated from male Hartley guinea-pigs, and spiral specimens of approximately 2 cm length were prepared. These specimens were suspended in organ baths that contained Krebs-Henseleit solution at 37°C under a resting tension of 1.5 g, and the changes in isometric tension were recorded. The first concentration-response curves were obtained by cumulative applications of 1 × 10^-9 to 3 × 10^-7M of U-46619 (Cayman, thromboxane A2 / prostaglandin H2 receptor agonist) in the organ baths. After treatments with test compounds at adequate concentrations for 5 minutes, the second concentration-response curves were obtained in the same manner as the first applications. pKB values were calculated using these two concentration-response curves according to the method of Schild [Pharmacological Review, Vol. 9, 242 (1957)]. Indomethacin (3 × 10^-6M, Sigma) was added beforehand to the organ bath to eliminate possible affections by thromboxane A2 and prostaglandin produced endogenously [Japan J. Pharmacol., Vol. 60, 227 (1992)].

Data set [2] has as its system bronchoconstriction induced by leukotriene D4. Nature of the data set: Inhibitory effect on bronchoconstriction induced by leukotriene D4 (Konzett-Roessler). The data set is classed as in vivo, Male Hartley guinea-pigs. Particulars: Cavia porcellus; oral administration 2 hours before leukotriene D4 (1 µg/kg, cervical vein), anesthetized guinea-pigs, indomethacin and propranolol pretreated. How it is done: Airway resistance was evaluated according to the method of Konzett-Roessler [Naunyn-Schmiedberg's Arch. Exp. Path. Pharmak., Vol. 195, 71 (1940)]. Male Hartley guinea-pigs fasted beforehand for 24 hours were anesthetized with urethane, and then overflowed air volume was measured under artificial ventilation as an index of bronchoconstriction. Various doses of test compounds suspended in 5% gum Arabic were administered orally, and after 2 hours, leukotriene D4 (1 µg/kg; ULTRA FINE) was administered through the cervical vein. Then, values at 2 minutes were measured when maximum responses were obtained. Inhibitory rates compared to the control group were calculated based on the response rate normalized by the overflowed volume at complete closure as 100% bronchoconstriction rate, and the 50% inhibitory doses (ED50 values) were calculated using dose-inhibitory rate curves. Indomethacin (2mg/kg, i.v.) and propranolol (1mg/kg, i.v.) were administered at 10 minutes and 5 minutes before the administration of leukotriene D4, respectively. […]

The subject of data set [3] is human liver microsomes. Nature of the data set: In vitro metabolism test. It is filed as in vitro ADME. The settings on record: 0.4mg protein/ml human liver microsomes, 0.02 mM test compound, NADPH-generating system, 37°C for 30 minutes, HPLC. The protocol:
0.05 mM EDTA-0.1M phosphate buffer (pH 7.4), distilled water, 0.4mg protein/ml human liver microsomes and 0.02 mM test compound were mixed in a test tube under ice-cooling. After the mixture was shaken at 37°C for 2 minutes beforehand, the mixture was added with a ready-mix of NADPH-generating system and then shaken at 37°C for 30 minutes. After the incubation, the reaction was stopped by cooling with ice. The mixture was added with acetonitrile and well mixted, and then centrifuged at 3000 rpm for 10 minutes. The resulting supernatant was subjected to HPLC measurement, and the residual rate of test compound was calculated from the ratio of a peak area of an unchanged compound in the reaction sample in comparison with a non-reaction mixture. Preparations of reagents and reaction mixtures were carried out by referring to Shin Seikagaku Koza, Vol. 5: Biological oxidation and drug metabolism edited by The Japanese Biochemical Society. […]

Data set [4] deals with T2, leukotriene D4 (Cavia porcellus, UniProt Q2NNR5).
T2 construct: tracheas were isolated from male Hartley guinea-pigs, and spiral specimens of approximately 2 cm length were prepared; from tissue; host or cells: isolated guinea-pig trachea (spiral strips)
T2 sequence (Q2NNR5 1-340): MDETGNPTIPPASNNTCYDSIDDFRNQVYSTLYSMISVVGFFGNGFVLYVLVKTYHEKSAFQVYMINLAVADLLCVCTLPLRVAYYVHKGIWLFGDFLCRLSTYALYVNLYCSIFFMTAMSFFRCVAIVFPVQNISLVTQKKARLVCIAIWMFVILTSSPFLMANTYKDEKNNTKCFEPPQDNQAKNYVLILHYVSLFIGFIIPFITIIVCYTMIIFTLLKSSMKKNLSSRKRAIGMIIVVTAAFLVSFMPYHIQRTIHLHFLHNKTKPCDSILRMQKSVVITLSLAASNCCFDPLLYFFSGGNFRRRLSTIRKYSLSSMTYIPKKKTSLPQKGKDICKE
Nature of the data set: Leukotriene D4 antagonistic effect (isolated trachea, leukotriene D4 concentration-response curves, Schild). Further details: species or system male Hartley guinea-pigs. Particulars: isolated guinea-pig trachea, contraction by leukotriene D4, test compound treatment 30 minutes, indomethacin 1 × 10^-6M, method of Schild. How it is done:
According to an ordinary method, tracheas were isolated from male Hartley guinea-pigs, and spiral specimens of approximately 2 cm length were prepared. These specimens were suspended isotonically in organ baths that contained Krebs-Henseleit solution at 37°C under a resting tension of 0.5g. After contractions with acetylcholine (1 × 10^-5M; Ovisot for injection, Daiichi Seiyaku), and the first concentration-response curves were obtained by cumulative applications of 10^-10 to 10^-8M of leukotriene D4 (ULTRA FINE) in the organ baths. After treatments with test compounds at adequate concentrations for 30 minutes, the second concentration-response curves were obtained in the same manner as the first applications. pKB values were calculated using these two concentration-response curves according to the method of Schild [Pharmacological Review, Vol. 9, 242 (1957)]. Indomethacin (1 × 10^-6M, Sigma) was added beforehand to the organ bath to eliminate possible affections by thromboxane A2 and prostaglandin produced by stimulus of leukotriene D4 [Japan J. Pharmacol., Vol. 60, 227 (1992)]. […]

The subject of data set [5] is bronchoconstriction induced by U-46619. Nature of the data set: Inhibitory effect on bronchoconstriction induced by U-46619 (Konzett-Roessler). It is filed as in vivo, Male Hartley guinea-pigs. Particulars: Cavia porcellus; 0.3 mg/kg orally, 2 hours before U-46619 (4 µg/kg, cervical vein), anesthetized guinea-pigs, compared to control group; read-out: Inhibition rate (%). How it is done: Airway resistance was evaluated according to the method of Konzett-Roessler [Naunyn-Schmiedberg's Arch. Exp. Path. Pharmak., Vol. 195, 71 (1940)]. Male Hartley guinea-pigs (about 400g wt.) were anesthetized with urethane (1.5g/kg, i.p.) and ventilated by an artificial respirator (Model 683; Harvard). At the same time, overflowed air volume above the pressure of about 12cm H2O was measured by using a sensor (Model 7020; Ugo Basile) and the value was used as an index of bronchoconstriction. 0.3 mg/kg (5 ml/kg) of test compounds suspended in 5% gum Arabic was administered orally to the guinea-pigs fasted beforehand for 24 hours. After 2 hours, U-46619 (4 µg/kg; Cayman) was administered through the cervical vein, and then maximal response was measured. Inhibitory rates compared to the control group were calculated based on the response rate normalized by the complete closure as 100%. […]

A word on the Kb: it is the affinity of an antagonist, worked out from how it opposes an agonist. A higher Kb goes with a less potent antagonist. Broadly, the ED50 is the dose at which the effect has come halfway, by size or by number of responders.

On to `CCCCCC(NS(=O)(=O)c1ccc(Cl)cc1)c1ccc(CCCC(=O)O)cc1` (stereo not drawn) [Reference compound 1, 4-[4-[1-(4-Chlorophenylsulfonylamino)hexyl]phenyl]butyric acid, reference compound], for which the figures for the antagonist dissociation constant (Kb) in data set [1] and in data set [4] were 1 nM and 200 nM, respectively. The 50% effective dose (ED50) in data set [2] was determined as 8.1 mg/kg. In addition, the “Residual rate (%)” value in data set [3] is given as 53%. The inhibition in vivo at 0.3 mg/kg in data set [5] was 85%.
Taken in the same sequence, the figures for `O=C(O)CCCc1ccc(C(CCCC(F)(F)C(F)(F)F)NS(=O)(=O)c2ccc(F)cc2)cc1` (stereo not drawn) [Example 189, 4-[4-[5,5,6,6,6-Pentafluoro-1-(4-fluorophenylsulfonylamino)hexyl]phenyl]butyric Acid] were 2.51 nM, 251 nM, 0.92 mg/kg, 88% and 71%.
For `O=C(O)CCCc1ccc(C(CCCC(F)(F)C(F)(F)F)NS(=O)(=O)c2ccc(Cl)cc2)s1` (stereo not drawn) [Example 162, 4-[5-[1-(4-Chlorophenylsulfonylamino)-5,5,6,6,6-pentafluorohexyl]-2-thienyl]butyric Acid], the antagonist equilibrium constant (Kb) in data set [1] is 0.398 nM; in data set [4], 251 nM. Also, in data set [2], the median effective dose (ED50) is 1.3 mg/kg. In addition, the “Residual rate (%)” value in data set [3] is 72%. Besides, the inhibition in vivo at 0.3 mg/kg in data set [5] amounted to 85%.
